# Tests used:
# UC3 bladder cancer cells = test: UC3 colony formation after 2 hrs drug treatment, washout and 32° C. or 37° C. incubation; assay type: cell-based; conditions: 2 hrs drug at 37° C., washout, 32° C. vs 37° C. 24 hrs, then 7 days at 37° C.
# Protocol: FIGS. 17A and 17B show hypothermia treatment given after chemotherapy enhances drug response in bladder cancer. […] The washed cells were incubated at 32° C. or 37° C. for 24 hrs, followed by 7 days at 37° C. and crystal violet staining for colony formation.
# Standard bladder intravesical chemotherapy involves 1-2 hr irrigation with drugs at 37° C. or 42° C. The effect of treating cells with 32° C. hypothermia after chemotherapy was tested to avoid interference with drug uptake. TS mutant p53 activation peaks 6-8 hrs after shift to 32° C., which should cooperate with chemotherapy-induced DNA damage to induce cell death. […] Saline irrigation of up to 24 hrs is routinely performed after transurethral resection of bladder tumor (TURBT) procedure to prevent clotting. Therefore, irrigation with cooled saline after intravesical chemotherapy is expected to be well-tolerated and safe.
# [1] = tested on: H1299 stably expressing ts p53 mutants; test: Apoptosis (PARP cleavage) and MTS cell viability in H1299 stably expressing ts p53 mutants treated with CPT; assay type: cell-based, human
# Protocol: FIGS. 3A to 3D show induction of growth arrest and cell death by p53 ts mutants. […] DNA replication rate was measured by scintillation counting and normalized to cell number. […] PARP cleavage was determined by Western blot. FIGS. 3C and 3D show H1299 stably expressing ts p53 mutants treated with CPT at indicated concentrations for 48 hrs at 37° C. or 32° C. Cell viability was determined by MTS assay. The results are average of 3 experiments (mean±SD).
# Western blot. Cells were lysed in lysis buffer (50 mM Tris-HCl pH 8.0, 5 mM EDTA, 150 mM NaCl, 0.5% Nonidet P-40, 1×protease inhibitor cocktail) and centrifuged for 10 minutes at 14,000×g, and the insoluble debris was discarded. Cell lysate (10-50 µg of protein) was fractionated by SDS-PAGE and transferred to Immobilion P filters (Millipore). […] MDM2 was detected using monoclonal antibody 3G9 produced in house. Other markers were detected using commercial antibodies: Actin (Sigma A5441), p53-DO1 (BD Pharmingen #554293), p21 (BD Pharmingen #556430), PUMA (CellSignaling #12450), PARP (BD Pharmingen #556362), p53 pSer15 (CellSignaling #9284), p53 acetyl-Lys382 (CellSignaling #2525).
# Cell proliferation and viability assays. DNA replication was analyzed using ^3H-thymidine incorporation assay. […] The incorporated ^3H-thymidine was analyzed by liquid scintillation counting. […]
# GA10 tumors = test: GA10 subcutaneous tumor xenografts in nude mice treated with CPT with or without hypothermia; assay type: in vivo
# Protocol: FIGS. 7A to 7E show hypothermia cooperates with chemotherapy to induce regression of tumors expressing ts p53. […] CPT (1.5 mg/kg) was given at the beginning of each hypothermia cycle. Average size of tumors was plotted over time (mean±SD). FIG. 7B contains pictures of a GA10 partial response tumor before and after treatment. FIG. 7C is a waterfall plot showing combined results of 3 experiments. Tumors with durable remission are marked as “cured”. FIG. 7D contains individual growth curves of representative GA10 tumors from FIG. 7A that achieved durable remission after treatment. FIG. 7E contains individual growth curves of GA10 tumors from FIG. 7A that relapsed and received re-treatment.
# FIGS. 14A to 14D show effect of low-dose CPT treatment alone on tumor growth. […] Tumor growth at 37° C. (without hypothermia treatment) was determined at indicated time points. […] Tumor growth at 37° C. (without hypothermia treatment) was determined at indicated time points. […] When tumors reached approximately 100 mm^3 the mice were injected i.p. with 1.5 mg/kg CPT every 3 days. Tumor growth was monitored over time (mean±SD). […] Average size of tumors was plotted over time.
# Animal experiment. Animal experiments were reviewed and approved by the University of South Florida IACUC. Athymic female nude mice (6-week old, Athymic Nude-Foxn1nu, Envigo) were injected subcutaneously with 0.1 ml 1:1 slurry of Matrigel (VWR 47743-715) and 1×10^7 cells in PBS at each site. The inoculated mice were housed in a cabinet set to 28° C. (ARIA BIO-C36 ventilated cabinet, TECNIPLAST) to ensure that tumors develop at ˜37° C. Each mouse received injections at 2 sites, tumors formed at >80% of sites injected with GA10 cells. N^6-cyclohexyladenosine (CHA, Sigma C9901) was dissolved at 20 mg/ml in 25% (2-Hydroxypropyl)-β-cyclodextrin (w/v, Sigma H107) and heated at 65° C. for 10 min to ensure dissolution. Camptothecin (CPT, Santa Cruz Biotechnology sc-200871B) was freshly dissolved in 1 N NaOH, diluted to ˜0.5 mg/ml with saline, and adjusted to pH10 using HCl. To induce hypothermia, 0.2 ml saline+10% glucose containing CHA and CPT was administered by intra peritoneal injection to provide a CHA dosage of 10 mg/kg body weight and CPT (when indicated) dosage of 1.5 mg/kg body weight. The mice were kept in the 28° C. cabinet and monitored using infrared thermal imaging camera (FLIR ONE Pro, FLIR® Systems, Inc.) to verify that body temperature was maintained at ˜32° C. A second injection of CHA (10 mg/kg) in 0.4 ml saline+10% glucose was given after 10 hours to maintain hypothermia for ˜24 hours. A third injection of CHA (10 mg/kg) in 0.4 ml saline+10% glucose was given after 10 hours to maintain hypothermia for ˜32 hours. […]
smiles,measurement,setting,value
"CC[C@@]1(O)C(=O)OCc2c1cc1n(c2=O)Cc2cc3ccccc3nc2-1 [CPT, Camptothecin]",effect of 32° C. for 24 hrs after drug on growth inhibition (colony formation),UC3 bladder cancer cells,significantly increased the growth inhibition potency
same,apoptosis indicated by PARP cleavage,"[1]; 0.5 μM CPT for 48 hrs at 32° C., 1% FBS",cooperated with CPT to induce apoptosis
same,cell viability (MTS assay),[1]; CPT for 48 hrs at 32° C.,loss of cell viability
same,"GA10 tumor growth, CPT alone","GA10 tumors; 1.5 mg/kg CPT i.p., 37° C., no hypothermia",modestly inhibited GA10 tumor growth at 37 °C but did not cause shrinkage
same,"response to CPT, GA10 versus GA10-p53KO tumors","GA10 tumors; 1.5 mg/kg CPT, 37° C. body temperature (p53 inactive)",no difference in response to CPT
same,GA10 tumor response to hypothermia+CPT combination,"GA10 tumors; CPT 1.5 mg/kg, 32° C. hypothermia, 32 hr×5 format",significant regression
same,GA10 tumors that did not relapse,"GA10 tumors; hypothermia+CPT, 32 hr×5 format, 50-day observation period after stopping treatment (12/37)",32%
